Data on 31 compounds can be found in patent publication US12514254B2, “Rosa canina rosehip” (priority 2020, dated 2026).

One assay concerns S. aureus MRSA. Briefly: Drug-resistance profile towards antibiotics. Note: key: R = resistant; S = sensitive. Type of assay: cell-based, Staphylococcus aureus. Here is the method:
(§1) The resistance profiles of the microbial strains mentioned above, evaluated by the inventors and available in the literature, are reported in Tables 4 and 5 [24-26].
(§2) The activity on bacterial or fungal (yeast) strains isolated from biological samples from hospitalized or collection patients was evaluated, the nosocomial derivation of the majority of these strains characterized their resistance to different antimicrobials as reported in Tables 4 and 5.
(§3) In particular: • Klebsiella pneumoniae: represents the main opportunistic microorganism responsible for nosocomial infections and several authors report persistent biofilms of K. pneumoniae in water systems. A clinical isolate (NC5) was used to assess the actual resistance to the preparations. • Escherichia coli: the ATCC 7075 (American Type Culture Collection) strain was used. • Staphylococcus aureus Methicillin-resistantATCC BAA-811 is responsible for several suppurative infections in humans, it is often isolated in patients with prostheses. • Pseudomonas aeruginosa: in the present work a mucoid strain was tested (ATCC 15442) from the American Type Culture Collection (ATCC), known in the literature for its remarkable refractoriness to disinfectants, in particular if the strain is present in sessile form or in a state of mature biofilm. https://www.lgcstandards-atcc.org/products/all/15442.aspx?geo_country=it • Three azole-resistant clinical isolates belonging to the Candida genus were used, in particular: C. albicans clinical isolate BF1, C. krusei clinical isolate BF2 andclinical C. glabrata, isolate BF3 [1,26]. • In all the tests performed, each microbial species was cultivated according to standard growth conditions, in particular: • 1. Mueller-Hinton Agar medium (Microbiol, Uta, Cagliari), was used for the growth of E. coli, S. aureus, P. aeruginosa and K. pneumoniae. The development conditions were: in air at 37° C. • 2. Schaedler Agar and Broth (Microbiol) medium was used for the growth of S. pyogenes and S. mutans. Development conditions: in air and 5% CO2 at 37° C. • 3. Sabouraud Dextrose Agar and Broth (Microbiol), used for C. albicans, C. krusei and C. glabrata. Development conditions: in air at 37° C.

Another assay concerns S. pyogenes. Briefly: Drug-resistance profile towards antibiotics. Note: key: R = resistant; S = sensitive. Type of assay: cell-based, Streptococcus pyogenes. How it is done: as §1, §2, §3
Another assay has as its system P. aeruginosa. Briefly: Drug-resistance profile towards antibiotics. Note: key: R = resistant; S = sensitive. Type of assay: cell-based, Pseudomonas aeruginosa. Here is the method:
as §1, §2, §3

In another assay the test system is K. pneumoniae. In words: Drug-resistance profile towards antibiotics. Note: key: R = resistant; S = sensitive. Type of assay: cell-based, Klebsiella pneumoniae. Here is the method:
as §1, §2, §3

The subject of the next assay is E. coli. In words: Drug-resistance profile towards antibiotics. Note: key: R = resistant; S = sensitive. Type of assay: cell-based, Escherichia coli. How it is done:
as §1, §2, §3

Another assay deals with C. albicans. In words: Drug-resistance profile of fungal strains. Type of assay: cell-based, Candida albicans. How it is done:
as §1, §2
as §3, with “Sabouraud Dextrose Agar and Broth (Microbiol), used for C. albicans, C. krusei and C. glabrata. Development conditions: in air at 37° C.” left out

Another assay concerns C. krusei. In words: Drug-resistance profile of fungal strains. Type of assay: cell-based, Candida krusei. How it is done: as §1, §2
as §3, with “Sabouraud Dextrose Agar and Broth (Microbiol), used for C. albicans, C. krusei and C. glabrata. Development conditions: in air at 37° C.” left out

Another assay concerns C. glabrata. In words: Drug-resistance profile of fungal strains. Type of assay: cell-based, Candida glabrata. How it is done:
as §1, §2
as §3, with “Sabouraud Dextrose Agar and Broth (Microbiol), used for C. albicans, C. krusei and C. glabrata. Development conditions: in air at 37° C.” left out

With Teicoplanin, in the assay on S. aureus MRSA, the Drug-resistance profile entry is given as “S”.

Regarding `CN(C)[C@@H]1C(O)=C(C(N)=O)C(=O)[C@@]2(O)C(O)=C3C(=O)c4c(O)cccc4[C@@](C)(O)[C@H]3C[C@@H]12` [Tetracycline], the Drug-resistance profile result with S. aureus MRSA is reported as “S”.

`CN[C@H](CC(C)C)C(=O)N[C@H]1C(=O)N[C@@H](CC(N)=O)C(=O)N[C@H]2C(=O)N[C@H]3C(=O)N[C@H](C(=O)N[C@H](C(=O)O)c4cc(O)cc(O)c4-c4cc3ccc4O)[C@H](O)c3ccc(c(Cl)c3)Oc3cc2cc(c3O[C@@H]2O[C@H](CO)[C@@H](O)[C@H](O)[C@H]2O[C@H]2C[C@](C)(N)[C@H](O)[C@H](C)O2)Oc2ccc(cc2Cl)[C@H]1O` [Vancomycin]: the Drug-resistance profile entry in the assay with S. pyogenes and in the assay on S. aureus MRSA was “S” each time.

For `C[C@@H](O)[C@H]1C(=O)N2C(C(=O)O)=C(SCCN=CN)C[C@H]12` [Imipenem], the Drug-resistance profile result in the assay on P. aeruginosa and in the assay on K. pneumoniae was “S” each time.

Piperacillin-tazobactam: the Drug-resistance profile result with E. coli, with P. aeruginosa and in the assay with K. pneumoniae was “S” throughout.

For `CO/N=C(\C(=O)N[C@@H]1C(=O)N2C(C(=O)[O-])=C(C[N+]3(C)CCCC3)CS[C@H]12)c1csc(N)n1` [Cefepime], the Drug-resistance profile result with P. aeruginosa and in the assay with K. pneumoniae was “S” each time.

Consider Colistin, for which the Drug-resistance profile result with P. aeruginosa and in the assay on K. pneumoniae was “S” in each case.

Take `C[C@@H](c1ncncc1F)[C@](O)(Cn1cncn1)c1ccc(F)cc1F` [Voriconazole]: the Drug-resistance profile result in the assay on C. albicans (VRC reference values), with C. krusei (VRC reference values) and in the assay with C. glabrata (VRC reference values) was “R (VRC: R > 4 μg/mL)” throughout.

With `O=C(O)c1cn(C2CC2)c2cc(N3CCNCC3)c(F)cc2c1=O` [Ciprofloxacin], the results for the Drug-resistance profile result with P. aeruginosa and with K. pneumoniae were “R” and “S”, respectively.

On to `CC(=O)O[C@H]1C[C@@]2(C)[C@@H](C[C@@H](O)[C@H]3[C@@]4(C)CC[C@@H](O)[C@@H](C)[C@@H]4CC[C@@]32C)/C1=C(\CCC=C(C)C)C(=O)O` [Fusidic acid], for which the Drug-resistance profile entry in the assay with S. pyogenes and with S. aureus MRSA was “S” in each case.

In the case of `CC1(C)S[C@@H]2[C@H](NC(=O)Cc3ccccc3)C(=O)N2[C@H]1C(=O)O` [Benzylpenicillin], the Drug-resistance profile entry with S. aureus MRSA is “R”.

For the compound `CO[C@H]1/C=C/O[C@@]2(C)Oc3c(C)c(O)c4c(O)c(c(/C=N/N5CCN(C)CC5)c(O)c4c3C2=O)NC(=O)/C(C)=C\C=C\[C@H](C)[C@H](O)[C@@H](C)[C@@H](O)[C@@H](C)[C@H](OC(C)=O)[C@@H]1C` [Rifampicin], the Drug-resistance profile entry with S. pyogenes and in the assay with S. aureus MRSA was “S” each time.

In the case of `CN(C)c1cc(NC(=O)CNC(C)(C)C)c(O)c2c1C[C@H]1C[C@H]3[C@H](N(C)C)C(O)=C(C(N)=O)C(=O)[C@@]3(O)C(O)=C1C2=O` [Tigecycline], the Drug-resistance profile result in the assay on S. pyogenes and with S. aureus MRSA was “S” throughout.

Turning to Gentamicin, the Drug-resistance profile entry in the assay on S. pyogenes, with P. aeruginosa, in the assay with K. pneumoniae and in the assay with S. aureus MRSA was “S” in each case.

Turning to `C[C@H]1COc2c(N3CCN(C)CC3)c(F)cc3c(=O)c(C(=O)O)cn1c23` [Levofloxacin], the Drug-resistance profile entry in the assay with S. pyogenes and in the assay on S. aureus MRSA was “S” each time.

Consider `CO/N=C(\C(=O)N[C@@H]1C(=O)N2C(C(=O)O)=C(COC(C)=O)CS[C@H]12)c1csc(N)n1` [Cefotaxime], for which the Drug-resistance profile entry with E. coli is “S”.

With Trimethoprim-sulfamethoxazole, the Drug-resistance profile result in the assay with S. pyogenes was “R”; with P. aeruginosa it was “R”; in the assay with K. pneumoniae, “R”; with S. aureus MRSA it was “S”.

Regarding `C[C@@H](O)[C@H]1C(=O)N2C(C(=O)O)=C(S[C@@H]3CN[C@H](C(=O)Nc4cccc(C(=O)O)c4)C3)[C@H](C)[C@H]12` [Ertapenem], the Drug-resistance profile entry is “S” with E. coli, “R” in the assay on P. aeruginosa and “R” with K. pneumoniae.

Take `C[C@@H](O)[C@H]1C(=O)N2C(C(=O)O)=C(S[C@@H]3CN[C@H](C(=O)N(C)C)C3)[C@H](C)[C@H]12` [Meropenem]: the Drug-resistance profile entry with E. coli, with P. aeruginosa and in the assay with K. pneumoniae was “S” each time.

On to `CC(=O)NC[C@H]1CN(c2ccc(N3CCOCC3)c(F)c2)C(=O)O1` [Linezolid], for which the Drug-resistance profile result with S. pyogenes and in the assay on S. aureus MRSA was “S” throughout.

Consider `CCC[C@@H]1C[C@@H](C(=O)N[C@@H]([C@H]2O[C@H](SC)[C@H](O)[C@@H](O)[C@H]2O)[C@H](C)Cl)N(C)C1` [Clindamycin], for which the Drug-resistance profile entry in the assay with S. pyogenes and in the assay with S. aureus MRSA was “S” throughout.

`CC(=O)N1CCN(c2ccc(OCC3COC(Cn4ccnc4)(c4ccc(Cl)cc4Cl)O3)cc2)CC1` (stereo not shown) [Ketoconazole]: the Drug-resistance profile result in the assay with C. albicans (KTC reference values), with C. krusei (KTC reference values) and in the assay with C. glabrata (KTC reference values) was “R (KTC: R > 1 μg/mL)” throughout.

With `Cc1onc(-c2ccccc2)c1C(=O)N[C@@H]1C(=O)N2[C@@H]1SC(C)(C)[C@@H]2C(=O)O` [Oxacillin], the Drug-resistance profile result with S. pyogenes is given as “R”; in the assay on S. aureus MRSA it was “S”.

`NCC[C@H](O)C(=O)N[C@@H]1C[C@H](N)[C@@H](O[C@H]2O[C@H](CN)[C@@H](O)[C@H](O)[C@H]2O)[C@H](O)[C@H]1O[C@H]1O[C@H](CO)[C@@H](O)[C@H](N)[C@H]1O` [Amikacin]: the Drug-resistance profile result is given as “R” in the assay on E. coli, “S” with P. aeruginosa and “R” in the assay with K. pneumoniae.

For the compound `CC(C)(O/N=C(\C(=O)N[C@@H]1C(=O)N2C(C(=O)[O-])=C(C[n+]3ccccc3)CS[C@H]12)c1csc(N)n1)C(=O)O` [Ceftazidime], the Drug-resistance profile result in the assay with E. coli, with P. aeruginosa and with K. pneumoniae was “S” throughout.

Take `CCCCCCCCCC(=O)N[C@@H](Cc1c[nH]c2ccccc12)C(=O)N[C@H](CC(N)=O)C(=O)N[C@@H](CC(=O)O)C(=O)N[C@@H]1C(=O)NCC(=O)N[C@@H](CCCN)C(=O)N[C@@H](CC(=O)O)C(=O)N[C@H](C)C(=O)N[C@@H](CC(=O)O)C(=O)NCC(=O)N[C@H](CO)C(=O)N[C@@H]([C@H](C)CC(=O)O)C(=O)N[C@@H](CC(=O)c2ccccc2N)C(=O)O[C@@H]1C` [Daptomycin]: the Drug-resistance profile result in the assay with S. aureus MRSA was “S”.

`CCO/N=C(\C(=O)N[C@@H]1C(=O)N2C(C(=O)[O-])=C(Sc3nc(-c4cc[n+](C)cc4)cs3)CS[C@H]12)c1nsc(N)n1` [Ceftaroline]: in the assay on S. aureus MRSA, the Drug-resistance profile result is recorded as “S”.

In the case of `C[C@@H]1O[C@@H]1P(=O)(O)O` [Fosfomycin], the Drug-resistance profile result in the assay on P. aeruginosa is given as “R”; in the assay with K. pneumoniae it was “S”.

In the case of `OC(Cn1cncn1)(Cn1cncn1)c1ccc(F)cc1F` [Fluconazole], the Drug-resistance profile result with C. albicans (FLC reference values), in the assay with C. krusei (FLC reference values) and with C. glabrata (FLC reference values) was “R (FLC: R > 64 μg/mL)” each time.

Regarding `CC[C@H]1OC(=O)[C@H](C)[C@@H](O[C@H]2C[C@@](C)(OC)[C@@H](O)[C@H](C)O2)[C@H](C)[C@@H](O[C@@H]2O[C@H](C)C[C@H](N(C)C)[C@H]2O)[C@](C)(O)C[C@@H](C)C(=O)[C@H](C)[C@@H](O)[C@]1(C)O` [Erythromycin], the Drug-resistance profile result with S. pyogenes is reported as “S”; in the assay with S. aureus MRSA, “R”.

Amoxicillin/ac. Clavulanic: the Drug-resistance profile result in the assay with E. coli is given as “R”.
